Test results published in PubChem BioAssay AID200 (DTP/NCI, 2004).
“And” between values parts separate entries of the source, which are not always exact repeats. Equal values may be shown once. Toxic doses and inconclusive results are not listed. Where a SMILES comes first, the peptide text is derived from it.

System: B6C3F1 mice, B16 melanoma ip, median survival T/C
Test: NCI In Vivo Anticancer Drug Screen. Data for tumor model B16 Melanoma (intraperitoneal) in B6C3F1 mice
Conditions: endpoint: median survival time, higher = longer survival
Summary of the method: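 Mice bearing transplanted tumor were dosed with compound or vehicle, and survival was recorded. Activity is expressed as the treated-group measurement (T) divided by the vehicle control measurement (C).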

[1] = dose: 25.0 mg/kg/injection, schedule: Q01DX009 (ip), vehicle: saline with Tween-80
[2] = dose: 50.0 mg/kg/injection, schedule: Q01DX009 (ip), vehicle: saline with Tween-80
[3] = dose: 100.0 mg/kg/injection, schedule: Q01DX009 (ip), vehicle: saline with Tween-80
[4] = dose: 200.0 mg/kg/injection, schedule: Q01DX009 (ip), vehicle: saline with Tween-80
[5] = dose: 12.5 mg/kg/injection, schedule: Q01DX009 (ip), vehicle: saline
[6] = dose: 25.0 mg/kg/injection, schedule: Q01DX009 (ip), vehicle: saline
[7] = dose: 50.0 mg/kg/injection, schedule: Q01DX009 (ip), vehicle: saline
[8] = dose: 100.0 mg/kg/injection, schedule: Q01DX009 (ip), vehicle: saline
[9] = dose: 200.0 mg/kg/injection, schedule: Q01DX009 (ip), vehicle: saline
[10] = dose: 100.0 mg/kg/injection, schedule: Q01DX009 (ip), vehicle: Klucel (hydroxypropylcellulose) (HPC)
[11] = dose: 200.0 mg/kg/injection, schedule: Q01DX009 (ip), vehicle: Klucel (hydroxypropylcellulose) (HPC)
[12] = dose: 12.5 mg/kg/injection, schedule: Q01DX009 (ip), vehicle: Klucel (hydroxypropylcellulose) (HPC)
[13] = dose: 25.0 mg/kg/injection, schedule: Q01DX009 (ip), vehicle: Klucel (hydroxypropylcellulose) (HPC)
[14] = dose: 50.0 mg/kg/injection, schedule: Q01DX009 (ip), vehicle: Klucel (hydroxypropylcellulose) (HPC)
[15] = dose: 12.5 mg/kg/injection, schedule: Q01DX009 (ip), vehicle: saline with Tween-80
[16] = dose: 3.12 mg/kg/injection, schedule: Q01DX009 (ip), vehicle: saline with Tween-80
[17] = dose: 6.25 mg/kg/injection, schedule: Q01DX009 (ip), vehicle: saline with Tween-80

C1CN(P2(N3CC3)=NP(N3CC3)(N3CC3)=NP(N3CC3)(N3CC3)=N2)CCO1 (centres undefined)
T/C (dose: 1.0 mg/kg/injection, schedule: Q01DX009 (ip), vehicle: saline): 87 % of control and 96 % of control
T/C (dose: 1.0 mg/kg/injection, schedule: Q02DX009 (ip), vehicle: saline): 88 % of control and 106 % of control
T/C (dose: 2.0 mg/kg/injection, schedule: Q01DX009 (ip), vehicle: saline): 87 % of control and 105 % of control
T/C (dose: 2.0 mg/kg/injection, schedule: Q02DX009 (ip), vehicle: saline): 114 % of control and 92 % of control
T/C (dose: 4.0 mg/kg/injection, schedule: Q01DX009 (ip), vehicle: saline): 101 % of control
T/C (dose: 4.0 mg/kg/injection, schedule: Q02DX009 (ip), vehicle: saline): 103 % of control
T/C (dose: 8.0 mg/kg/injection, schedule: Q01DX009 (ip), vehicle: saline): 110 % of control
T/C (dose: 8.0 mg/kg/injection, schedule: Q02DX009 (ip), vehicle: saline): 109 % of control and 121 % of control
T/C (dose: 16.0 mg/kg/injection, schedule: Q01DX009 (ip), vehicle: saline): 179 % of control
T/C (dose: 16.0 mg/kg/injection, schedule: Q02DX009 (ip), vehicle: saline): 169 % of control
T/C (dose: 32.0 mg/kg/injection, schedule: Q01DX009 (ip), vehicle: saline): 182 % of control and 205 % of control

COc1cc2c(cc1O)C1CC(CC3CCCCN31)OC(=O)/C=C\c1ccc(O)c-2c1 (centres undefined)
T/C (dose: 15.0 mg/kg/injection, schedule: Q01DX009 (ip), vehicle: saline): 101 % of control
T/C (dose: 30.0 mg/kg/injection, schedule: Q01DX009 (ip), vehicle: saline): 104 % of control
T/C (dose: 60.0 mg/kg/injection, schedule: Q01DX009 (ip), vehicle: saline): 114 % of control
T/C (dose: 120.0 mg/kg/injection, schedule: Q01DX009 (ip), vehicle: saline): 102 % of control

O=C(Nc1ccccc1CCl)Nc1ccccc1CCl
T/C [1]: 111 % of control
T/C [2]: 115 % of control
T/C [3]: 115 % of control
T/C [4]: 118 % of control

O=C1OC(=O)[C@H]2[C@@H]1[C@H]1C=C[C@@H]2OC1=O
T/C [5]: 102 % of control
T/C [6]: 101 % of control
T/C [7]: 106 % of control
T/C [8]: 102 % of control
T/C [9]: 99 % of control

Clc1cc(Cl)nc(N2CC2)n1
T/C (dose: 2.5 mg/kg/injection, schedule: Q01DX009 (ip), vehicle: saline with Tween-80): 108 % of control
T/C (dose: 5.0 mg/kg/injection, schedule: Q01DX009 (ip), vehicle: saline with Tween-80): 102 % of control
T/C (dose: 10.0 mg/kg/injection, schedule: Q01DX009 (ip), vehicle: saline with Tween-80): 106 % of control

CN(C)CCc1ccc(O)cc1
T/C [8]: 89 % of control
T/C [9]: 92 % of control

C/C1=C/C(C)C(O)C(O)C(=O)C2(C)CNC3=C(O2)C(=O)c2c(cc(C)c(O)c2C1=O)C3=O (centres undefined)
T/C (dose: 4.0 mg/kg/injection, schedule: Q01DX009 (ip), vehicle: distilled water + Tween-80): 103 % of control
T/C (dose: 8.0 mg/kg/injection, schedule: Q01DX009 (ip), vehicle: distilled water + Tween-80): 100 % of control
T/C (dose: 16.0 mg/kg/injection, schedule: Q01DX009 (ip), vehicle: distilled water + Tween-80): 105 % of control
T/C (dose: 32.0 mg/kg/injection, schedule: Q01DX009 (ip), vehicle: distilled water + Tween-80): 103 % of control

CCCC1C/C=C/C=C/C=C/C=C/C(OC2OC(C)C(O)C(N)C2O)CC(O)C(C(=O)O)C(O)CC(=O)CC(O)CCCC(=O)CC(O)C(CC)C(=O)O1 (centres undefined)
T/C (dose: 2.5 mg/kg/injection, schedule: Q01DX009 (ip), vehicle: Klucel (hydroxypropylcellulose) (HPC)): 114 % of control
T/C (dose: 5.0 mg/kg/injection, schedule: Q01DX009 (ip), vehicle: Klucel (hydroxypropylcellulose) (HPC)): 106 % of control
T/C (dose: 10.0 mg/kg/injection, schedule: Q01DX009 (ip), vehicle: Klucel (hydroxypropylcellulose) (HPC)): 104 % of control
T/C (dose: 20.0 mg/kg/injection, schedule: Q01DX009 (ip), vehicle: Klucel (hydroxypropylcellulose) (HPC)): 89 % of control

Ic1ccc2c(c1)N(c1ccccc1)c1cc(N=c3ccc4nc5ccc(I)cc5n(-c5ccccc5)c-4c3)ccc1N2
T/C [10]: 91 % of control
T/C [11]: 94 % of control
T/C (dose: 400.0 mg/kg/injection, schedule: Q01DX009 (ip), vehicle: Klucel (hydroxypropylcellulose) (HPC)): 91 % of control

CCCC(NC(=O)CNC(=O)OCc1ccccc1)C(=O)O (centres undefined) (HELM PEPTIDE1{[O=C(OCc1ccccc1)[*:2]].G.[CCCC(N[*:1])C(=O)O]}$$$$V2.0)
T/C [10]: 104 % of control
T/C [11]: 92 % of control

CCCCCCCOc1ccc(C(=O)O)cc1
T/C [12]: 106 % of control
T/C [13]: 108 % of control
T/C [14]: 114 % of control

CC(C)(C)OC(=O)NC(Cc1ccccc1)C(=O)O (centres undefined)
T/C [14]: 104 % of control
T/C [10]: 88 % of control
T/C [11]: 100 % of control

OC1CSC1
T/C (dose: 50.0 mg/kg/injection, schedule: Q01DX009 (ip), vehicle: saline + alcohol): 109 % of control
T/C (dose: 100.0 mg/kg/injection, schedule: Q01DX009 (ip), vehicle: saline + alcohol): 107 % of control
T/C (dose: 200.0 mg/kg/injection, schedule: Q01DX009 (ip), vehicle: saline + alcohol): 113 % of control
T/C (dose: 400.0 mg/kg/injection, schedule: Q01DX009 (ip), vehicle: saline + alcohol): 112 % of control

Clc1cc(Cl)c(C[N+]23CN4CN(CN(C4)C2)C3)cc1Cl
T/C [15]: 101 % of control
T/C [5]: 102 % of control
T/C [1]: 105 % of control
T/C [6]: 100 % of control
T/C [2]: 102 % of control
T/C [7]: 106 % of control
T/C [3]: 107 % of control
T/C [8]: 111 % of control

CC(=O)NC(CCc1ccc(Cl)c(Cl)c1)c1cccc(O)c(=O)c1 (centres undefined)
T/C (dose: 3.0 mg/kg/injection, schedule: Q01DX009 (ip), vehicle: Klucel (hydroxypropylcellulose) (HPC)): 93 % of control
T/C (dose: 6.0 mg/kg/injection, schedule: Q01DX009 (ip), vehicle: Klucel (hydroxypropylcellulose) (HPC)): 101 % of control
T/C [12]: 101 % of control
T/C [13]: 105 % of control
T/C [14]: 105 % of control

Cc1c2cc(Cl)c3ccccc3c2c[n+]2ccccc12
T/C [16]: 103 % of control
T/C [17]: 108 % of control
T/C [15]: 112 % of control
T/C [1]: 101 % of control
T/C [2]: 108 % of control

C=C1CCC2C(c3c(C)c(O)c4c(c31)C(=O)C(C)C4)C2(C)C (centres undefined)
T/C (dose: 3.13 mg/kg/injection, schedule: Q01DX009 (ip), vehicle: Klucel (hydroxypropylcellulose) (HPC)): 102 % of control
T/C (dose: 6.25 mg/kg/injection, schedule: Q01DX009 (ip), vehicle: Klucel (hydroxypropylcellulose) (HPC)): 89 % of control
T/C [12]: 95 % of control
T/C [13]: 89 % of control

CCC(=O)[O-].CCC(=O)[O-].CCC(=O)[O-].CCC(=O)[O-].O=S(=O)(O)O.[Re].[Re]
T/C (dose: 64.8 mg/kg/injection, schedule: Q01DX009 (ip), vehicle: suspension in saline): 93 % of control
T/C (dose: 108.0 mg/kg/injection, schedule: Q01DX009 (ip), vehicle: suspension in saline): 86 % of control
T/C (dose: 300.0 mg/kg/injection, schedule: Q01DX009 (ip), vehicle: suspension in saline): 86 % of control

COc1cc(OC)c(NC(=O)ON2C(=O)c3ccccc3C2=O)cc1Cl
T/C [16]: 98 % of control
T/C [17]: 104 % of control
T/C [15]: 104 % of control
T/C [1]: 96 % of control
T/C [2]: 87 % of control

O=NNc1ccc(Br)cn1
T/C (dose: 1.56 mg/kg/injection, schedule: Q01DX009 (ip), vehicle: water): 110 % of control and 112 % of control
T/C (dose: 3.12 mg/kg/injection, schedule: Q01DX009 (ip), vehicle: water): 119 % of control and 124 % of control
T/C (dose: 12.5 mg/kg/injection, schedule: Q01DX009 (ip), vehicle: water): 158 % of control and 170 % of control

C[C@@](O)(/C=C/[C@H]1CC=CC(=O)O1)[C@@H](C[C@@H](O)\C=C/C=C\C=C\CO)OP(=O)(O)O
T/C (dose: 3.12 mg/kg/injection, schedule: Q01DX009 (ip), vehicle: other): 98 % of control and 105 % of control
T/C (dose: 6.25 mg/kg/injection, schedule: Q01DX009 (ip), vehicle: other): 110 % of control and 102 % of control
T/C (dose: 12.5 mg/kg/injection, schedule: Q01DX009 (ip), vehicle: other): 101 % of control and 103 % of control
T/C (dose: 25.0 mg/kg/injection, schedule: Q01DX009 (ip), vehicle: other): 99 % of control

CCOC(=O)C(C)(C)Oc1ccc(Cl)cc1
T/C [15]: 93 % of control and 105 % of control
T/C [1]: 93 % of control and 102 % of control
T/C [2]: 93 % of control and 101 % of control
T/C [3]: 102 % of control and 104 % of control
T/C [4]: 90 % of control
